The record followed here is US6495551B1, “Substituted phenyloxazolidinones and their use as antibiotics” (priority 1997, dated 2002).

In brackets after ≈: the same amount, converted by molar mass.

Holding throughout (assay): MIC by agar-dilution, standard in vitro test system
Common to all, as to format: cell-based
Holding throughout (settings): IsoSensitest agar, inoculum 10^4 CFU/spot, 37° C. for 24 hours

The test system of assay [1] is Staphylococcus aureus Novb. Res (Novobiocin resistant). The procedure: (§1) The following results were obtained on a standard in vitro test system. The activity is described in terms of the minimum inhibitory concentration (MIC) determined by the agar-dilution technique with an inoculum size of 10^4 CFU/spot.
(§2) The organisms were tested on a standard semi-defined susceptability test medium (IsoSensitest agar), using an inoculum of 10^4 CFU/spot and an incubation temperature of 37° C. for 24 hours.
Novb. Res=Novobiocin resistant

The test system of assay [2] is Staphylococcus aureus MRQR (methicillin resistant quinolone resistant). The procedure: as §1, §2
MRQR=methicillin resistant quinolone resistant

The test system of assay [3] is Coagulase Negative Staphylococcus MR (methicillin resistant). The procedure:
as §1, §2

Another assay has as its system Bacillus subtilis. On the procedure:
(§3) The following results were obtained on a standard in vitro test system. The activity is described in terms of the minimum inhibitory concentration (MIC) determined by the agar-dilution technique with an inoculum size of 10^4 CFU/spot. The organisms were tested on a standard semi-defined susceptability test medium (IsoSensitest agar), using an inoculum of 10^4 CFU/spot and an incubation temperature of 37° C. for 24 hours.

Assay [4] concerns Coagulase Negative Staphylococcus MS. The procedure:
as §3

The test system of a further assay is Enterococcus faecalis. The procedure: as §3
For assay [5], the system named is Staphylococcus aureus Oxford. The procedure:
as §3

For assay [6], the system named is Streptococcus pyogenes C203. The procedure:
as §3

With `CC(=O)NC[C@H]1CN(c2ccc(-n3cnc(C(=O)Nc4nccs4)c3)c(F)c2)C(=O)O1` [Example 43, N-[(5S)-3-(3-Fluoro-4-(4-(thiazol-2-ylaminocarbonyl)imidazol-1-yl)phenyl)-2-oxooxazolidin-5-ylmethyl]acetamide], the MIC in assay [1] amounted to 0.25 µg/mL (≈ 0.562 µM); in assay [2], 1 µg/mL (≈ 2.25 µM); in assay [3], 0.25 µg/mL (≈ 0.562 µM); with Bacillus subtilis it was 0.25 µg/mL (≈ 0.562 µM); in assay [4], 0.06 µg/mL (≈ 0.135 µM); against Enterococcus faecalis, 0.5 µg/mL (≈ 1.12 µM). In addition, the MIC in assay [5] and in assay [6] was 0.125 µg/mL (≈ 0.281 µM) throughout.
